Data on three compounds can be found in US8470765B2, “Polypeptides and antibacterial or antiseptic use of same” (AnGes MG, Inc., priority 2009, dated 2013).

Assay [1] concerns Staphylococcus aureus (S. aureus ATCC29213). Description: ATP assay (BacTiter-Glo) viability, Table 2. The conditions noted are these: ATCC29213, 3 h, read-out: Viability (%) S. aureus. The format is cell-based. On the procedure: The antibacterial activity of the polypeptides was measured using the ATP assay method.
Using BacTiter-Glo Microbial Cell Viability Assay kit available from PROMEGA, the antibacterial activity of the peptides was evaluated from the viability of bacteria. That is, ATP amount in viable bacteria in cases where the concentration of the peptides was 10 μg/ml, was measured using a microtiter plate or test tubes.
With respect to the strains, Staphylococcus aureus (S. aureus ATCC29213) as Gram-positive bacteria, or, alternatively, Pseudomonas aeruginosa (P. aeruginosa ATCC27853) as Gram-negative bacteria, was used. The bacteria were cultured in media for 3 to 4 hours, and thereafter absorbances at A600 were measured. Bacterial suspensions were diluted with Mueller-Hinton broth (MHB) according to McFarland #0.5. Each strain was added so as to attain about 0.5-1×10^5 CFU/mL (final concentration) in terms of Escherichia coli. Each peptide was prepared and added to a microplate or test tubes so as to attain a final concentration of […], and the bacterial suspension was added thereto. […] The plate was incubated at 37° C. for 3 hours, and the amount of ATP in the culture media was measured. Relative values were calculated by comparison with the negative control, and these values were regarded as the viability.

Assay [2] has as its system Pseudomonas aeruginosa 1 (clinical strain). Description: microbe, parasite or virus in culture. On the procedure:
(§1) Bacteria (Escherichia coli ATCC 25922, Pseudomonas aeruginosa ATCC 27853, Staphylococcus aureus ATCC29213, Klebsiella pneumoniae JCM 1662, Enterobacter cloacae JCM 1232, Enterobacter aerogenes JCM 1235 and Staphylococcus epidermidis JCM 2414) were inoculated to Mueller-Hinton broth: MHB or LB medium, and cultured at a temperature and period suited for each strain. From the thus obtained colonies, each strain was inoculated to a fresh liquid medium and cultured for 16 to 20 hours. Then an aliquot having a volume (10 to 50 appropriate to each strain was inoculated to a fresh liquid medium and cultured for 4 to 6 hours, followed by the measurement of the absorbance at 600 nm. After comparing the turbidity with McFarland #0.5, the resultant was diluted with a medium. Each strain was added to about 10^5 CFU/mL (final concentration).
(§2) Further, the antibacterial activities against the clinical strains collected and isolated from infected patients were also examined. The tests were carried out for two methicillin-resistant Staphylococcus (MRSA) (MRSA (i) and (ii)), two methicillin-sensitive Staphylococcus (MSSA) (MSSA (i) and (ii)), five Pseudomonas aeruginosa, Pseudomonas aeruginosa 1, Pseudomonas aeruginosa 6, Pseudomonas aeruginosa 8. Pseudomonas aeruginosa 9 and Pseudomonas aeruginosa 12, totally 9 clinical strains. The MRSA and MSSA clinical strains were tested by the same method as Staphylococcus aureus ATCC29213, and Pseudomonas clinical strains were tested by the same method as Pseudomonas aeruginosa ATCC 27853.
(§3) Each of the peptide solutions to be tested was diluted with MHB to obtain a solution of 128 μg/mL. This solution was serially diluted with the medium to prepare peptide-containing media having concentrations of 128, 64, 32, 16, 8.0, 4.0 and 2.0 μg/mL respectively. […] By dilution with sterilized purified water to 1.0 mg/mL, positive control-containing media having concentrations of 16, 8, 4, 2, 1.0, 0.25, 0.12 and 0.06 μg/mL, respectively for TOB; 0.5, 0.12 and 0.06 μg/mL, respectively, for OX; and 16, 8, 4, 2, 1.0, 0.25, 0.12, 0.06, 0.06, 0.03 and 0.008 μg/mL, respectively, for MEPM, were prepared.
(§4) To a 96-well microtiter plate, 0.1 mL of the inoculation solution and 0.1 mL of the peptide- or positive control-containing medium having the respective concentration were added, and cultured at 37° C. for 16 to 24 hours (or a time period suited for the growth of the respective strain). The well not containing the sample was used as a negative control. After the culturing, the growth was visually observed, and the minimum concentration at which the growth was inhibited was defined as the minimum growth inhibition concentration (MIC).
(§5) The medium used in this test for bacteria was Mueller-Hinton broth. Independent experiments were carried out twice or more for each strain.

Assay [3] relates to Pseudomonas aeruginosa 12 (clinical strain). Description: microbe, parasite or virus in culture. The conditions noted are these: for MIC Pseudomonas aeruginosa 12: Table 4, clinical strain, first/second value where not identical. On the procedure: as §1, §2, §3, §4, §5
For assay [4], the system named is Pseudomonas aeruginosa 6 (clinical strain). Description: microbe, parasite or virus in culture. On the procedure: as §1, §2, §3, §4, §5
Assay [5] concerns Pseudomonas aeruginosa 9 (clinical strain). As to the kind of experiment: microbe, parasite or virus in culture. On the procedure:
as §1, §2, §3, §4, §5

Assay [6] has as its system methicillin-resistant Staphylococcus (MRSA) MRSA(i). Description: organism not typed. The note with it: for MIC MRSA(i): methicillin-resistant Staphylococcus (i). On the procedure:
as §1, §2, §3, §4, §5

Assay [7] deals with methicillin-resistant Staphylococcus (MRSA) MRSA(ii). As to the kind of experiment: organism not typed. How it is done:
as §1, §2, §3, §4, §5

The test system of assay [8] is methicillin-sensitive Staphylococcus (MSSA) MSSA(ii). As to the kind of experiment: organism not typed. The conditions noted are these: for MIC MSSA(ii): methicillin-sensitive Staphylococcus (ii). On the procedure:
as §1, §2, §3, §4, §5

Assay [9] concerns Pseudomonas aeruginosa 8 (clinical strain). The note with it: 8 (clinical strain). On the procedure:
as §1, §2, §3, §4, §5

In assay [10] the test system is methicillin-sensitive Staphylococcus (MSSA) MSSA(i). As to the kind of experiment: organism not typed. The conditions noted are these: Table 4; clinical strain; first/second value where not identical. On the procedure:
as §1, §2, §3, §4, §5

Assay [11] has as its system Bacillus subtilis NBRC3134. The note with it: NBRC3134.
Assay [12] deals with Salmonella typhimurium JCM1652.
The test system of assay [13] is Acinetobacter baumanni JCM6841.
Assay [14] has as its system Bacteroides fragilis JCM 11019. The conditions noted are these: JCM 11019.
In assay [15] the test system is Fusobacterium nucleatum JCM 11025. The conditions noted are these: JCM 11025.
The test system of another assay is Fusarium solani JCM11383. The conditions noted are these: Table 4; two tests, first/second value where not identical.
Assay [16] concerns Trichophyton rubrum NBRC9185.
Another assay relates to Candida krusei NBRC1395. The note with it: NBRC1395.
For assay [17], the system named is Aspergillus niger NBRC 9455.
Where [18] appears, read: Table 4, clinical strain, first/second value where not identical.
Where [19] appears, read: Table 4, two tests, first/second value where not identical.

Converted amounts (≈) assume the structure as drawn. Where two headings read alike, the source gives them in different places. No end group written: not given here.

Consider `NC[C@H]1O[C@H](O[C@H]2[C@H](O)[C@@H](O[C@H]3O[C@H](CO)[C@@H](O)[C@H](N)[C@H]3O)[C@H](N)C[C@@H]2N)[C@H](N)C[C@@H]1O` [tobramycin, reference compound], for which, in [1], the viability at 1 µg/mL came out at 3.6%. For the same compound, the MIC in assay [2] (Pseudomonas aeruginosa, read-out: MIC Pseudomonas aeruginosa 1) is > 16000 µg/mL; in assay [3] (Pseudomonas aeruginosa, read-out: MIC Pseudomonas aeruginosa 12), < 4000 µg/mL; in assay [4] (Pseudomonas aeruginosa, read-out: MIC Pseudomonas aeruginosa 6) it was < 4000 µg/mL; in assay [5] (Pseudomonas aeruginosa, read-out: MIC Pseudomonas aeruginosa 9), < 4000 µg/mL; in assay [6] (read-out: MIC MRSA(i)) it was > 16000 µg/mL; in [7] (read-out: MIC MRSA(ii)), > 16000 µg/mL. Moreover, the MIC in [8] (read-out: MIC MSSA(ii)) stood at 4 µg/mL (≈ 0.00856 mM).

Regarding KLIFLHRLKRELRKRLKRKLR-NH2 [SRP-13], the “MIC Pseudomonas aeruginosa 1” value in assay [2] (setting [18]) was 16/32. In [3], the “MIC Pseudomonas aeruginosa 12” value is on record as 8/16. Also, the “MIC Pseudomonas aeruginosa 6” value in [4] (setting [18]) is recorded as 8/16. Also, in assay [5] (9 (clinical strain)), the MIC Pseudomonas aeruginosa 9 is 64 µg/mL. Moreover, in assay [9], the MIC Pseudomonas aeruginosa 8 came out at 16 µg/mL. Further, the MIC MRSA(i) in assay [6] worked out at 64 µg/mL. For the same compound, the MIC MRSA(ii) in [7] (methicillin-resistant Staphylococcus (ii)) was found to be 64 µg/mL. In addition, the “MIC MSSA(i)” value in assay [10] was 16/32. In assay [8], the MIC MSSA(ii) is 16 µg/mL. The same compound displayed an MIC Bacillus subtilis in assay [11] of 4 µg/mL. Moreover, in [12] (JCM1652), the MIC Salmonella Typhimurium was found to be 4 µg/mL. Also, the “MIC Acinetobacter baumanni” value in [13] (setting [19]) is recorded as 16/32. This compound also returned an MIC Bacteroides fragilis in assay [14] of 64 µg/mL. Also, in assay [15], the MIC Fusobacterium nucleatum was found to be 4 µg/mL. The “MIC Fusarium solani” value against Fusarium solani JCM11383 is on record as 4/8. Also, the “MIC Trichophyton rubrum” value in assay [16] (setting [19]) was 128/64. In addition, the MIC Candida krusei against Candida krusei NBRC1395 was 32 µg/mL. In assay [17] (NBRC 9455), the MIC Aspergillus niger came out at 16 µg/mL.

Regarding GRLKRMGERLKRKIQKWIRW-NH2 [SRP-15], the MIC Pseudomonas aeruginosa 1 in assay [2] (1 (clinical strain)) was 16 µg/mL. The “MIC Pseudomonas aeruginosa 12” value in assay [3] was 8/16. The MIC Pseudomonas aeruginosa 6 in assay [4] (6 (clinical strain)) was found to be 16 µg/mL. For the same compound, the “MIC Pseudomonas aeruginosa 9” value in [5] (setting [18]) is listed as 8/64. This compound also gave an MIC Pseudomonas aeruginosa 8 in assay [9] of 16 µg/mL. This compound also yielded an MIC MRSA(i) in [6] of 16 µg/mL. For the same compound, in assay [7] (setting [18]), the “MIC MRSA(ii)” value is listed as 16/32. Further, the “MIC MSSA(i)” value in assay [10] is 16/32. Besides, the MIC MSSA(ii) in [8] was determined as 16 µg/mL. The compound also registered an MIC Bacillus subtilis in assay [11] of 4 µg/mL. Moreover, the “MIC Salmonella Typhimurium” value in [12] (setting [19]) is listed as 8/4. The compound further registered an MIC Acinetobacter baumanni in [13] (JCM6841) of 32 µg/mL. In assay [14], this compound came in with an MIC Bacteroides fragilis of 16 µg/mL. For the same compound, the MIC Fusobacterium nucleatum in [15] amounted to 4 µg/mL. Moreover, in the assay on Fusarium solani JCM11383, the “MIC Fusarium solani” value is given as 16/32. Besides, the MIC Trichophyton rubrum in [16] (NBRC9185) was 64 µg/mL. Also, in the assay with Candida krusei NBRC1395, the MIC Candida krusei came out at 16 µg/mL. Further, in assay [17] (setting [19]), the “MIC Aspergillus niger” value is given as 8/16.
